In US8003660B2, “Modulators of muscarinic receptors” (Vertex Pharmaceuticals Incorporated, priority 2006, dated 2011):

Legend:
Assay type in all cases: cell-based
[1] = target: T1, M1 muscarinic receptor (Homo sapiens, UniProt P11229); experiment: Functional mobilization of intracellular calcium (FLIPR) in CHO cells expressing M1; conditions: for EC50: CHO cells expressing M1, FLIPR calcium; for Emax: CHO, 100% = maximum response obtained with the Carbachol control, read-out: M1 Efficacy
T1 construct: expressed in transfected cells; host or cells: CHO (M1-CHO)
T1 sequence (P11229 1-460): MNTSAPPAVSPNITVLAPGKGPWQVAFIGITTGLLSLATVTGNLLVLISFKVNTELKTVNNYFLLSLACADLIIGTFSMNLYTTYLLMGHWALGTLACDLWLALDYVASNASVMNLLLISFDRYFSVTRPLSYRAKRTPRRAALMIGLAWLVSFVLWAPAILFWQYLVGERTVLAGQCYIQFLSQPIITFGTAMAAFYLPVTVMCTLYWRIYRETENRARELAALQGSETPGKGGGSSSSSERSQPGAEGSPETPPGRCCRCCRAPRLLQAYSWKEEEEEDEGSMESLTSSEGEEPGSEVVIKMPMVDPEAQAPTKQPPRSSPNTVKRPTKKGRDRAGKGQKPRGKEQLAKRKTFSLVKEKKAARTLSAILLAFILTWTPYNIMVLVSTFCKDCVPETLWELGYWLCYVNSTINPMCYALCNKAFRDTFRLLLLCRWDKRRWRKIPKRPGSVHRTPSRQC
How it was run: (§1)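 Calcium flux is read on FLIPR over 60 sec at 488/540 nm in muscarinic-receptor CHO lines. Antagonist mode adds carbachol at EC80 after 15 min compound preincubation or with simultaneous co-application. Agonist mode adds compound alone. Cells carry Fluo-3 or Calcium 3 dye in probenecid-containing pH 7.4 buffer, 0.5% DMSO final.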

[2] = target: T2, M2 muscarinic receptor (Homo sapiens, UniProt P08172); experiment: Functional mobilization of intracellular calcium (FLIPR) in CHO cells expressing M2; conditions: for EC50: CHO cells expressing M2, FLIPR calcium; for Emax: CHO, 100% = maximum response obtained with the Carbachol control, read-out: M2 Efficacy
T2 construct: expressed in transfected cells; host or cells: CHO (M2-CHO)
T2 sequence (P08172 1-466): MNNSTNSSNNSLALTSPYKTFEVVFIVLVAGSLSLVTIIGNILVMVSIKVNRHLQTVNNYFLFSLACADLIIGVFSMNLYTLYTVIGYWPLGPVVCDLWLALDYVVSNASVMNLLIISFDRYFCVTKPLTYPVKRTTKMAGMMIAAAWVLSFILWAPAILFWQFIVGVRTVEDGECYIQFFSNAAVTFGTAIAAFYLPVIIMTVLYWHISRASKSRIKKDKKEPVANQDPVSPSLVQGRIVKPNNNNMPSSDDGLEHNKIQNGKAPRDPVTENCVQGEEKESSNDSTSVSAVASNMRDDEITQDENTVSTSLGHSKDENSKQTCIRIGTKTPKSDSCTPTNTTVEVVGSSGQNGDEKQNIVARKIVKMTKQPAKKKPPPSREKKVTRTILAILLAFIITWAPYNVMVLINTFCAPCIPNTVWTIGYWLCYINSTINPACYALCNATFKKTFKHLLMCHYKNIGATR
How it was run: as §1

[3] = target: T3, M3 muscarinic receptor (Homo sapiens, UniProt P20309); experiment: Functional mobilization of intracellular calcium (FLIPR) in CHO cells expressing M3; conditions: for EC50: CHO cells expressing M3, FLIPR calcium; for Emax: CHO, 100% = maximum response obtained with the Carbachol control, read-out: M3 Efficacy
T3 construct: expressed in transfected cells; host or cells: CHO (M3-CHO)
T3 sequence (P20309 whole entry): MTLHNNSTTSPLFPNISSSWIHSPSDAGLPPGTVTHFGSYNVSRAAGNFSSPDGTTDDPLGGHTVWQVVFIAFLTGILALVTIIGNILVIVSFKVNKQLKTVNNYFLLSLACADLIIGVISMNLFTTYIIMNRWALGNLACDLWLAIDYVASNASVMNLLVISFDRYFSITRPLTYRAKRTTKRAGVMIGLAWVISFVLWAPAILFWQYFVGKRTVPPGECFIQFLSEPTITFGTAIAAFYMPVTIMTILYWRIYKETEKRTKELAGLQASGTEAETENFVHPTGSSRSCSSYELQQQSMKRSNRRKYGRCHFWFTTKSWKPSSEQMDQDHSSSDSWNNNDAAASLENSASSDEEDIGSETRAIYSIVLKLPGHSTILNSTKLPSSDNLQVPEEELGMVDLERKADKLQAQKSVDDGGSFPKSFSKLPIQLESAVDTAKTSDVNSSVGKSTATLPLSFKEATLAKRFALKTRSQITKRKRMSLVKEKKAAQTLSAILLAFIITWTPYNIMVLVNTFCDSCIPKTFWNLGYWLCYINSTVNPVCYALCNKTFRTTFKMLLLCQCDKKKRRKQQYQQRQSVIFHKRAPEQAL
How it was run: as §1

[4] = target: T4, M4 muscarinic receptor (Homo sapiens, UniProt P08173); experiment: Functional mobilization of intracellular calcium (FLIPR) in CHO cells expressing M4; conditions: for EC50: CHO cells expressing M4, FLIPR calcium; for Emax: CHO, 100% = maximum response obtained with the Carbachol control, read-out: M4 Efficacy
T4 construct: expressed in transfected cells; host or cells: CHO (M4-CHO)
T4 sequence (P08173 1-479): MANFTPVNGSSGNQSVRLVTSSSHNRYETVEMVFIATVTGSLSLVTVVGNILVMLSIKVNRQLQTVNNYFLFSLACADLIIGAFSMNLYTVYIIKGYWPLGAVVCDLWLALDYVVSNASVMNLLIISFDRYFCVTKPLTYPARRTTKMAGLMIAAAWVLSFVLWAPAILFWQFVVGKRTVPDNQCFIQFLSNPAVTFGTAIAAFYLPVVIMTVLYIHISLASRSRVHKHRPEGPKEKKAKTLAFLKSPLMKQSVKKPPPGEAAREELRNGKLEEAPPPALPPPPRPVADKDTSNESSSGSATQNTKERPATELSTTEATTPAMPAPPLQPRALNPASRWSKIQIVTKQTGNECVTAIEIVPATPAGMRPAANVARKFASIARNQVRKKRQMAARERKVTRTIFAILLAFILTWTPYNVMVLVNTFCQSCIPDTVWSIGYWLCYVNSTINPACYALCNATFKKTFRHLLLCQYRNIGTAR
How it was run: as §1

C[C@H](C(=O)N[C@@H]1CCC2(CCN(CCC(C)(C)C)CC2)c2ccccc21)N1CCCC1=O [compound 157]
EC50 [1]: 2000 to 5000 nM
Emax [1]: 25 to 100%
EC50 [2]: < 2000 nM
Emax [2]: < 25%
EC50 [3]: > 5000 nM
Emax [3]: < 25%
EC50 [4]: < 2000 nM
Emax [4]: 25 to 100%

CC(C)(C)CCN1CCC2(CC[C@H](NC(=O)C3CC3)c3ccccc32)CC1 [compound 158]
EC50 [1]: < 2000 nM
Emax [1]: 25 to 100%
EC50 [2]: < 2000 nM
Emax [2]: 25 to 100%
EC50 [3]: > 5000 nM
Emax [3]: < 25%
EC50 [4]: < 2000 nM
Emax [4]: 25 to 100%

CC(=O)N[C@H]1CCC2(CCN(CCC(C)C)CC2)c2ccccc21 [compound 159]
EC50 [1]: < 2000 nM
Emax [1]: 25 to 100%
EC50 [2]: > 5000 nM
Emax [2]: < 25%
EC50 [3]: > 5000 nM
Emax [3]: < 25%
EC50 [4]: < 2000 nM
Emax [4]: 25 to 100%

CC(=O)N1CCC[C@@H]1C(=O)N[C@H]1CCC2(CCN(CCC(C)(C)C)CC2)c2ccccc21 [compound 160]
EC50 [1]: < 2000 nM
Emax [1]: 25 to 100%
EC50 [2]: > 5000 nM
Emax [2]: < 25%
EC50 [3]: > 5000 nM
Emax [3]: < 25%
EC50 [4]: < 2000 nM
Emax [4]: 25 to 100%

CN([C@H]1CCC2(CCN(CCC(C)(C)C)CC2)c2ccccc21)S(C)(=O)=O [compound 161]
EC50 [1]: < 2000 nM
Emax [1]: 25 to 100%
EC50 [2]: > 5000 nM
Emax [2]: < 25%
EC50 [3]: > 5000 nM
Emax [3]: < 25%
EC50 [4]: < 2000 nM
Emax [4]: 25 to 100%

CC(=O)N[C@H](C)C(=O)N[C@@H]1CCC2(CCN(CCC(C)(C)C)CC2)c2ccccc21 [compound 162]
EC50 [1]: > 5000 nM
Emax [1]: 25 to 100%
EC50 [2]: > 5000 nM
Emax [2]: < 25%
EC50 [3]: > 5000 nM
Emax [3]: < 25%
EC50 [4]: < 2000 nM
Emax [4]: 25 to 100%

CC(=O)N[C@H](C)C(=O)N[C@@H]1CCC2(CCN(CCC(C)(C)C)CC2)c2cc(F)ccc21 [compound 163]
EC50 [1]: < 2000 nM
Emax [1]: 25 to 100%
EC50 [2]: < 2000 nM
Emax [2]: 25 to 100%
EC50 [3]: > 5000 nM
Emax [3]: < 25%
EC50 [4]: < 2000 nM
Emax [4]: 25 to 100%

CCC(=O)N(C)[C@H]1CCC2(CCN(CCC(C)(C)C)CC2)c2ccccc21 [compound 164]
EC50 [1]: < 2000 nM
Emax [1]: 25 to 100%
EC50 [2]: > 5000 nM
Emax [2]: < 25%
EC50 [3]: > 5000 nM
Emax [3]: < 25%
EC50 [4]: < 2000 nM
Emax [4]: 25 to 100%

Cn1cnc(C(=O)N[C@H]2CCC3(CCN(CCC(C)(C)C)CC3)c3cc(F)ccc32)c1 [compound 165]
EC50 [1]: < 2000 nM
Emax [1]: 25 to 100%
EC50 [2]: < 2000 nM
Emax [2]: 25 to 100%
EC50 [3]: > 5000 nM
Emax [3]: < 25%
EC50 [4]: < 2000 nM
Emax [4]: 25 to 100%

CCN(C(=O)C1CCN(C(=O)OC)CC1)[C@H]1CCC2(CCN(CCC(C)(C)C)CC2)c2ccccc21 [compound 166]
EC50 [1]: > 5000 nM
Emax [1]: 25 to 100%
EC50 [2]: > 5000 nM
Emax [2]: < 25%
EC50 [3]: > 5000 nM
Emax [3]: < 25%
EC50 [4]: < 2000 nM
Emax [4]: 25 to 100%

CC(C)[C@@H](C(=O)N[C@H]1CCC2(CCN(CCC(C)(C)C)CC2)c2ccccc21)N1CCCC1=O [compound 167]
EC50 [1]: < 2000 nM
Emax [1]: 25 to 100%
EC50 [2]: > 5000 nM
Emax [2]: < 25%
EC50 [3]: > 5000 nM
Emax [3]: < 25%
EC50 [4]: < 2000 nM
Emax [4]: 25 to 100%

CC(C)(C)CCN1CCC2(CC[C@@H](N3CCCC3=O)c3ccc(F)cc32)CC1 [compound 168]
EC50 [1]: 2000 to 5000 nM
Emax [1]: < 25%
EC50 [2]: > 5000 nM
Emax [2]: < 25%
EC50 [3]: > 5000 nM
Emax [3]: < 25%
EC50 [4]: < 2000 nM
Emax [4]: 25 to 100%

CC(C)(C)CCN1CCC2(CC[C@@H](NC(=O)CN3CCCCCC3=O)c3ccccc32)CC1 [compound 169]
EC50 [1]: < 2000 nM
Emax [1]: 25 to 100%
EC50 [2]: < 2000 nM
Emax [2]: < 25%
EC50 [3]: > 5000 nM
Emax [3]: < 25%
EC50 [4]: < 2000 nM
Emax [4]: 25 to 100%

CCN(C(=O)C1CCOCC1)[C@H]1CCC2(CCN(CCC(C)(C)C)CC2)c2ccccc21 [compound 170]
EC50 [1]: > 5000 nM
Emax [1]: < 25%
EC50 [2]: > 5000 nM
Emax [2]: < 25%
EC50 [3]: > 5000 nM
Emax [3]: < 25%
EC50 [4]: < 2000 nM
Emax [4]: 25 to 100%

CC(=O)N(C)CCC(=O)N[C@H]1CCC2(CCN(CCC(C)(C)C)CC2)c2ccccc21 [compound 171]
EC50 [1]: < 2000 nM
Emax [1]: 25 to 100%
EC50 [2]: < 2000 nM
Emax [2]: 25 to 100%
EC50 [3]: > 5000 nM
Emax [3]: < 25%
EC50 [4]: < 2000 nM
Emax [4]: 25 to 100%

C=CCCCN1CCC2(CC[C@H](NC(C)=O)c3ccccc32)CC1 [compound 172]
EC50 [1]: < 2000 nM
Emax [1]: 25 to 100%
EC50 [2]: 2000 to 5000 nM
Emax [2]: 25 to 100%
EC50 [3]: > 5000 nM
Emax [3]: < 25%
EC50 [4]: < 2000 nM
Emax [4]: 25 to 100%

CC(C)(C)CCN1CCC2(CCC(=O)c3ccccc32)CC1 [compound 173]
EC50 [1]: < 2000 nM
Emax [1]: 25 to 100%
EC50 [2]: < 2000 nM
Emax [2]: 25 to 100%
EC50 [3]: > 5000 nM
Emax [3]: < 25%
EC50 [4]: < 2000 nM
Emax [4]: 25 to 100%

COC(=O)N(C)[C@H]1CCC2(CCN(CCC(C)(C)C)CC2)c2ccccc21 [compound 174]
EC50 [1]: 2000 to 5000 nM
Emax [1]: 25 to 100%
EC50 [2]: > 5000 nM
Emax [2]: < 25%
EC50 [3]: > 5000 nM
Emax [3]: < 25%
EC50 [4]: < 2000 nM
Emax [4]: 25 to 100%

CN(C)C(=O)N[C@H]1CCC2(CCN(CCC(C)(C)C)CC2)c2ccccc21 [compound 175]
EC50 [1]: > 5000 nM
Emax [1]: < 25%
EC50 [2]: > 5000 nM
Emax [2]: < 25%
EC50 [3]: > 5000 nM
Emax [3]: < 25%
EC50 [4]: < 2000 nM
Emax [4]: 25 to 100%

CN(C(=O)C1CC1)[C@H]1CCC2(CCN(CCC(C)(C)C)CC2)c2ccccc21 [compound 176]
EC50 [1]: 2000 to 5000 nM
Emax [1]: < 25%
EC50 [2]: > 5000 nM
Emax [2]: < 25%
EC50 [3]: > 5000 nM
Emax [3]: < 25%
EC50 [4]: < 2000 nM
Emax [4]: 25 to 100%

CC(=O)N[C@H]1CCC2(CCN(CCC(C)(C)C)CC2)c2cc(F)ccc21 [compound 177]
EC50 [1]: < 2000 nM
Emax [1]: 25 to 100%
EC50 [2]: < 2000 nM
Emax [2]: 25 to 100%
EC50 [3]: > 5000 nM
Emax [3]: < 25%
EC50 [4]: < 2000 nM
Emax [4]: 25 to 100%

CN(C(=O)C1CCCC1)[C@H]1CCC2(CCN(CCC(C)(C)C)CC2)c2ccccc21 [compound 178]
EC50 [1]: > 5000 nM
Emax [1]: < 25%
EC50 [2]: > 5000 nM
Emax [2]: < 25%
EC50 [3]: > 5000 nM
Emax [3]: < 25%
EC50 [4]: < 2000 nM
Emax [4]: 25 to 100%

CC(=O)N[C@H]1CCC2(CCN(CCCCC(C)(C)C#N)CC2)c2ccccc21 [compound 179]
EC50 [1]: < 2000 nM
Emax [1]: 25 to 100%
EC50 [2]: > 5000 nM
Emax [2]: < 25%
EC50 [3]: > 5000 nM
Emax [3]: < 25%
EC50 [4]: > 5000 nM
Emax [4]: < 25%
